Reference: PMC10540511 (Cellular and molecular life sciences : CMLS, 2023)
Like-named read-outs stand apart in the source and are kept apart here.

Tests used:
CBM98 (BoGH13ASus CBM98) = target: T1, CBM98 (BoGH13ASus CBM98) (Bacteroides ovatus, UniProt A0ABU3ISA0); assay: isothermal titration calorimetry; format: binding; details: read-out: Kd (μM) ± SD; 25 °C, 20 mM HEPES pH 7.0, 100 mM NaCl
T1 sequence (A0ABU3ISA0 22-143): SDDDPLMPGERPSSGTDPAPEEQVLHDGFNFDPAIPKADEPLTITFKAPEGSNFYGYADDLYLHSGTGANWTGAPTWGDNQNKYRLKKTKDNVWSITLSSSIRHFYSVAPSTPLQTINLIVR

[1] = target: T2, CBM98-CBM48 (BoGH13ASus CBM98-CBM48) (Bacteroides ovatus, UniProt A0ABU3ISA0); assay: isothermal titration calorimetry; format: binding; details: read-out: Kd (μM) ± SD, 25 °C, 20 mM HEPES pH 7.0, 100 mM NaCl
T2 sequence (A0ABU3ISA0 22-296): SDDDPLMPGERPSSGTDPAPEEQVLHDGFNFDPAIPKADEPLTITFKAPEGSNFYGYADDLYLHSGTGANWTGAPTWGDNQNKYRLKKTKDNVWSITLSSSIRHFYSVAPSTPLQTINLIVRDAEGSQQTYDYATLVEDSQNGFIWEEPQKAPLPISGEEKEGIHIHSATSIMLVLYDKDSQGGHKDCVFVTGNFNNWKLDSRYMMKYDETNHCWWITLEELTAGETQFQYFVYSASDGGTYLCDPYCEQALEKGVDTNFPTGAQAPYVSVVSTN

[2] = standard-volume instrument, 25 μM protein

Kd (CBM98 (BoGH13ASus CBM98))	Kd [1, 2]	Kd [1]	Structure (SMILES)
26 ± 3.8 µM	21 ± 1.4 µM	–	OC[C@H]1O[C@@H]2O[C@H]3[C@H](O)[C@@H](O)[C@@H](O[C@H]4[C@H](O)[C@@H](O)[C@@H](O[C@H]5[C@H](O)[C@@H](O)[C@@H](O[C@H]6[C@H](O)[C@@H](O)[C@@H](O[C@H]7[C@H](O)[C@@H](O)[C@@H](O[C@H]8[C@H](O)[C@@H](O)[C@@H](O[C@H]1[C@H](O)[C@H]2O)O[C@@H]8CO)O[C@@H]7CO)O[C@@H]6CO)O[C@@H]5CO)O[C@@H]4CO)O[C@@H]3CO [βCD, β-cyclodextrin]
42 ± 13 µM	43 ± 18 µM	–	OC[C@H]1O[C@@H]2O[C@H]3[C@H](O)[C@@H](O)[C@@H](O[C@H]4[C@H](O)[C@@H](O)[C@@H](O[C@H]5[C@H](O)[C@@H](O)[C@@H](O[C@H]6[C@H](O)[C@@H](O)[C@@H](O[C@H]7[C@H](O)[C@@H](O)[C@@H](O[C@H]1[C@H](O)[C@H]2O)O[C@@H]7CO)O[C@@H]6CO)O[C@@H]5CO)O[C@@H]4CO)O[C@@H]3CO [αCD, α-cyclodextrin]
32 ± 9.8 µM	–	33 ± 9.9 µM	OC[C@H]1O[C@H](O[C@H]2[C@H](O)[C@@H](O)[C@@H](O[C@H]3[C@H](O)[C@@H](O)[C@@H](O[C@H]4[C@H](O)[C@@H](O)[C@@H](O[C@H]5[C@H](O)[C@@H](O)[C@@H](O[C@H]6[C@H](O)[C@@H](O)[C@@H](O[C@H]7[C@H](O)[C@@H](O)C(O)O[C@@H]7CO)O[C@@H]6CO)O[C@@H]5CO)O[C@@H]4CO)O[C@@H]3CO)O[C@@H]2CO)[C@H](O)[C@@H](O)[C@@H]1O (stereo partly drawn) [G7, maltoheptaose]
